According to patent US20220023227A1, “SYSTEMS AND METHODS FOR FORMING NANOCAPSULES BY PULSED ELECTROSPRAYING” (priority 2020, published 2022):
“Also recorded” adds a separate entry of the source.

Tests used:
4T1 tumor cells [1] = assay: 4T1 mammary fat pad tumor growth and survival after 3 weekly doses; assay type: in vivo, BALB/c mice
Method: Highly aggressive 4T1 tumor cells were implanted into 4th mammary fat pad of BALB/c mice and treatment was started one week post-implantation and total 3 doses (one dose/week) were injected. […] Results are presented as mean±SD (3-5 mice in each group).
(§1) Murine 4T1 cells were originally isolated from a spontaneous mammary tumor in the BALB/c strain and have been reported to show characteristics of human triple-negative breast cancer (TNBC) subtype. We first implanted 50,000 4T1 tumor cells into mammary fat pad of syngeneic mice and started treatment one-week post-implantation. After 3 doses by injection (one dose/week), the treatment was terminated and mice were followed for tumor growth and survival. […] Second set of mice euthanized to examine metastatic colonization of tumor cells in the lungs 72h after the last injection.

4T1 tumor cells [2] = assay: Metastatic outgrowth of disseminated 4T1 tumor cells, mice euthanized 72h after last injection; assay type: in vivo
From the text: Mice were sacrificed 3 days after the last dose injection to check the metastatic colonization of luciferase expressing 4T1 tumor cells. […] Results are presented as mean±SD (3 mice in each group).
as §1

Which results are given for `CC(=O)O[C@H]1C(=O)[C@@]2(C)[C@H]([C@H](OC(=O)c3ccccc3)[C@]3(O)C[C@H](OC(=O)[C@H](O)[C@@H](NC(=O)c4ccccc4)c4ccccc4)C(C)=C1C3(C)C)[C@]1(OC(C)=O)CO[C@@H]1C[C@@H]2O` [naked paclitaxel, paclitaxel]?
survival compared with tumor bearing mice that did not have any treatment (4T1 tumor cells [1]; 3 doses, one dose/week): longer; tumor size, difference between groups (4T1 tumor cells [1]; up to 42 days, FIG. 1b): no significant difference; metastatic colonization of tumor cells in the lungs (ex vivo lung imaging) (4T1 tumor cells [2]; 72h after the last injection, 3 mice in each group, FIG. 2d-e): micro metastatic colonization; also recorded: only micro metastases; tumor weight (4T1 tumor cells [2]; IP-injection, 72h after the last injection, FIG. 2a-b): decreased the tumor weight but this decrease was not significant; also recorded: decrease the tumor weight; signal intensity of luciferase in lungs, difference between groups (4T1 tumor cells [2]; ex vivo lung imaging, FIG. 2d-e): not significantly different
